This is an account of results in PMC3261798, “Design, Synthesis, and Biological Evaluation of PKD Inhibitors” (Pharmaceutics, 2011).

For data set [1], the target named is T1, PKD1 (Homo sapiens, UniProt Q15139).
T1 sequence (Q15139 1-912): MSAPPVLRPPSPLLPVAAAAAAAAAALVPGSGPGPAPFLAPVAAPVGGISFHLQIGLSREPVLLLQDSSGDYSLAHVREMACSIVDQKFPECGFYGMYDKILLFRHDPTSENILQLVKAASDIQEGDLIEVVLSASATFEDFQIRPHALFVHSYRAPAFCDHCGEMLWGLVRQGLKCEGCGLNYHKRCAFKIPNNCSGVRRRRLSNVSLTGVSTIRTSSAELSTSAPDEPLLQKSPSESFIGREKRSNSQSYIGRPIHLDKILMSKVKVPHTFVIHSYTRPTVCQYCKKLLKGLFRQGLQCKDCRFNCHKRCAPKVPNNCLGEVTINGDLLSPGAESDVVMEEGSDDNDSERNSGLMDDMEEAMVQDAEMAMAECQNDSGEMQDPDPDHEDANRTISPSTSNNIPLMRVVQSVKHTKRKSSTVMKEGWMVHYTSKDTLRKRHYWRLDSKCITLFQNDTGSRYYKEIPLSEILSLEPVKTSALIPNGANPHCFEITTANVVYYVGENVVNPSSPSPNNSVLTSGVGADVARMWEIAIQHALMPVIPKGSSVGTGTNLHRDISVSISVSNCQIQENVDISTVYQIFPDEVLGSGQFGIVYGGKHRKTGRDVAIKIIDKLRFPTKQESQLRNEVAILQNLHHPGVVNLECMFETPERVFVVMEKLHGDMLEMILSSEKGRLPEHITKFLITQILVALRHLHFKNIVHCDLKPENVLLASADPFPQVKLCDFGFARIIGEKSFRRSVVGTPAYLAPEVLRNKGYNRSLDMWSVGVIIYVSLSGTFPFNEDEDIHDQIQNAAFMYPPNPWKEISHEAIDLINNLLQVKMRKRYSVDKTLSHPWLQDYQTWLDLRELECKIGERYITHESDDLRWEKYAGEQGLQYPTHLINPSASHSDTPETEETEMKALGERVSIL
In words: IMAP-based PKD Fluorescence Polarization (FP) assay, automated HTS format. The class given is biochemical. Conditions: mean ± SEM, n = number of independent experiments. Here is the method:
An automated, HTS formatted IMAP-based PKD Fluorescence Polarization (FP) assay was used to assess the specificity of the PKD analogs as previously described. […] Kinase reactions were incubated for 90 min at room temperature and stopped by the addition of IMAP binding reagent. Assay plates were then incubated for 2 h and IMAP-based FP data were captured on a Molecular Devices Spectra-Max M5 (Sunnyvale, CA, USA).

Data set [2] deals with T1, PKD1. Kind of data set: In vitro radiometric PKD kinase activity assay. The class given is biochemical. On the set-up: purchased Biomol International. The following applies: for IC50: read-out: IC50 Radiometric PKD1; for inhibitory activity against PKD (in words): preliminary biological data for kmg-NB5-13 and kmg-NB5-15. Here is the method: In vitro radiometric PKD kinase assays were conducted as previously described. Briefly, 50 ng recombinant human PKD1 (Biomol International, Plymouth Meeting, PA, USA) was incubated at 30 °C for 10 min with a reaction mixture containing 2.5 μg syntide-2 (Sigma), 70 μM ATP, and 1 μCi γ-^32 P-ATP (PerkinElmer, Boston, MA, USA) in kinase buffer (50 mM Tris-HCl pH 7.5, […], and 10 mM […]). 25 μL of the reaction mixture was then spotted on Whatman P81 filter paper (Whatman Inc., Clifton, NJ, USA), and filter papers were washed three times with 0.5% phosphoric acid, dried, then counted using a Beckman LS6500 multi-purpose scintillation counter.

Setting [3] is: mean ± SEM, n = number of independent experiments.

Counter-ions that a name gives are not always drawn.

For the compound `O=C1NCCSc2c1sc1cnc(O)nc21` (as salt: hydrochloride) [kmg-NB4-69A, 2-Hydroxy-7H,8H,9H-1,4-thiazepino[7′,6′-5,4]thiopheno[3,2-d]pyrimidin-6-one], the melting point is 335.9 °C (dec.).

`CC(C)(C)[Si](C)(C)Oc1ccc2oc3c(c2c1)CCCNC3=O` [kb-NB77-77, 7-(tert-Butyldimethylsilyloxy)-2,3,4,5-tetrahydro-[1]benzoxolo[2,3-c]azepin-1-one] had a melting point of 209 to 212 °C. Further, on PKD1 [1], the “IC50 IMAP-FP PKD1” value is given as “not inhibitory”. Consider `CC(C)(C)[Si](C)(C)Oc1ccc2oc(=O)c3c(c2c1)CCCN3` [kb-NB77-78, 9-(tert-Butyldimethylsilyloxy)-1,2,3,4-tetrahydrochromeno[3,4-b]pyridin-5-one], for which the melting point was 117 to 119 °C. For the same compound, the “IC50 IMAP-FP PKD1” value at PKD1 [1] is “not inhibitory”. Compound `C=CCOc1ccc2oc(=O)c3c(c2c1)CCCN3` [kb-NB77-83, 9-Allyloxy-1,2,3,4-tetrahydrochromeno[3,4-b]pyridin-5-one] showed a melting point of 90 to 91 °C. In addition, the “IC50 IMAP-FP PKD1” value at PKD1 [1] is recorded as “not inhibitory”. For `O=C(OCc1ccccc1)N1CCCc2c1c(=O)oc1ccc(O)cc21` [kb-NB77-91, Benzyl 9-hydroxy-5-oxo-1,2,3,4-tetrahydrochromeno[3,4-b]pyridine-4-carboxylate], in that order: 235 to 237 °C and “not inhibitory”. On to `COc1ccc2oc3c(c2c1)CCCN(C)C3=O` [kb-NB96-04, 7-Methoxy-2-methyl-2,3,4,5-tetrahydro-[1]benzoxolo[2,3-c]azepin-1-one], for which the melting point was 150 to 151 °C. The same compound displayed an IC50 against PKD1 [1] greater than 100 µM. Consider `CC=Cc1c(O)ccc2oc3c(c12)CCCNC3=O` [kb-NB96-30, 6-[(E)-2-(Prop-1-enyl) ]-7-hydroxy-2,3,4,5-tetrahydro-[1]benzoxolo[2,3-c]azepin-1-one], for which the melting point is greater than 300 °C. For `O=C1NCCCc2c1oc1cc(Cl)c(O)c(Cl)c21` [kb-NB96-43, 6,8-Dichloro-7-hydroxy-2,3,4,5-tetrahydro-[1]benzoxolo[2,3-c]azepin-1-one], the melting point lay in the range of 298 to 301 °C. In addition, the “IC50 IMAP-FP PKD1” value against PKD1 [1] was “not inhibitory”.

In the case of `O=c1oc2ccc(O)c(Cl)c2c2c1NCCC2` [kb-NB96-47-1, 10-Chloro-9-hydroxy-1,2,3,4-tetrahydrochromeno[3,4-b]pyridin-5-one], the melting point was in the range of 211 to 213 °C. In addition, the “IC50 IMAP-FP PKD1” value at PKD1 [1] is given as “not inhibitory”.

On to `O=C1NCCCc2c1oc1cc(Cl)c(O)cc21` [kb-NB96-47-5, 8-Chloro-7-hydroxy-2,3,4,5-tetrahydro-[1]benzoxolo[2,3-c]azepin-1-one], for which the melting point was in the range of 327 to 332 °C.

In turn, `C=CCOc1ccc2oc3c(c2c1Cl)CCCNC3=O` [kb-NB96-50, 7-Allyloxy-6-chloro-2,3,4,5-tetrahydro-[1]benzoxolo[2,3-c]azepin-1-one] showed a melting point of 192 to 194 °C. For the same compound, the “IC50 IMAP-FP PKD1” value on PKD1 [1] is “not inhibitory”. Compound `COc1ccc2oc3c(c2c1)CCNC3=O` [kb-NB123-32, 6-Methoxy-3,4-dihydrobenzoxolo[2,3-c]pyridin-1(2H)-one] returned a melting point of 237 to 241 °C. At PKD1 [1], this compound came in with an IC50 greater than 100 µM.

The compound `CC(=O)Oc1ccc2oc3c(c2c1)CCCNC3=O` [kb-NB123-36, 7-Acetoxy-2,3,4,5-tetrahydro-[1]benzoxolo[2,3-c]azepin-1-one] showed a melting point of 196 to 197 °C. Moreover, half-maximal inhibition on PKD1 [1] (IC50) was put at 84.9 ± 3.21 µM. `COc1ccc2oc3c(c2c1)CCN(C)C3=O` [kb-NB123-37, 6-Methoxy-2-methyl-3,4-dihydrobenzoxolo[2,3-c]pyridin-1(2H)-one] came in with a melting point of 168 to 172 °C. For the same compound, the “IC50 IMAP-FP PKD1” value at PKD1 [1] is given as “not inhibitory”. `CC(=O)Oc1ccc2oc3c(c2c1)CCCN(C(C)=O)C3=O` [kb-NB123-45-1, 2-Acetyl-1-oxo-2,3,4,5-tetrahydro-[1]benzoxolo[2,3-c]azepin-7-yl acetate]: the melting point lay in the range of 155 to 157 °C. The “IC50 IMAP-FP PKD1” value at PKD1 [1] is “not inhibitory”. The like results for `O=C1NCCc2c1[nH]c1ccc(OCc3ccccc3)cc21` [kb-NB123-52, 2,3,4,9-Tetrahydro-6-benzyloxy-1H-pyrido[3,4-b]indol-1-one] were, in that order, 208 to 210 °C and “not inhibitory”.

`O=C1NCCCc2c1[nH]c1ccc(OCc3ccccc3)cc21` [kb-NB123-53, 3,4,5,10-Tetrahydro-7-benzyloxy-azepino[3,4-b]indol-1(2H)-one]: the “IC50 IMAP-FP PKD1” value at PKD1 [1] is “not inhibitory”. `O=C1NCCSc2c1sc1ccc(OCc3ccccc3)cc21` [kb-NB123-66, 3,4-Dihydro-9-benzyloxy-[1]benzothieno[2,3-f]-1,4-thiazepin-5(2H)-one] gave a melting point of 247 to 249 °C. For the same compound, the “IC50 IMAP-FP PKD1” value on PKD1 [1] is “not inhibitory”. For the compound `CC(=O)Nc1ccc2[nH]c3c(c2c1)CCNC3=O` [kb-NB123-93, N-(2,3,4,9-Tetrahydro-1-oxo-1H-pyrido[3,4-b]indol-6-yl)-acetamide], the melting point was greater than 300 °C. In addition, the “IC50 IMAP-FP PKD1” value against PKD1 [1] is listed as “not inhibitory”. `CC(=O)Nc1ccc2[nH]c3c(c2c1)CCCNC3=O` [kb-NB123-94] yielded a melting point greater than 300 °C. In addition, the “IC50 IMAP-FP PKD1” value at PKD1 [1] is reported as “not inhibitory”.

`CN1CCCc2c(oc3ccc(O)cc23)C1=O` [kb-NB142-25, 7-Hydroxy-2-methyl-2,3,4,5-tetrahydro-[1]benzoxolo[2,3-c]azepin-1-one] showed a melting point of 282 to 284 °C. Besides, the concentration for half-maximal inhibition (IC50) on PKD1 [2] (setting [3]) is 4 ± 1.1 µM. Regarding `Oc1ccc2oc3c(c2c1)CCCN1CCN=C31` [kb-NB165-15, 9-Hydroxy-3,5,6,7-tetrahydro-2H-benzoxolo[2,3-c]imidazo[1,2-a]azepine], the melting point was 230 to 232 °C (dec.). For the same compound, the “IC50 Radiometric PKD1” value on PKD1 [2] (setting [3]) is “not inhibitory”. As to `COc1ccc2sc3c(c2c1)SCCN(C)C3=O` [kb-NB165-16, 2,3-Dihydro-4-methyl-9-methoxy-[1]benzothieno[2,3-f]-1,4-thiazepin-5(2H)-one], the melting point lay within 160 to 161 °C. For the same compound, the IC50 at PKD1 [2] (setting [3]) was 4.57 ± 0.78 µM. The like results for `CN1CCSc2c(sc3ccc(O)cc23)C1=O` [kb-NB165-17, 2,3-Dihydro-4-methyl-9-hydroxy-[1]benzothieno[2,3-f]-1,4-thiazepin-5(2H)-one] were, in that order, 265 to 268 °C and 0.45 ± 0.05 µM. Turning to `COc1nc(OC)c2sc3c(c2n1)SCCNC3=O` [kmg-NB5-13C, 2,4-Dimethoxy-7H,8H,9H-1,4-thiazepino[7′,6′-5,4]thiopheno[3,2-d]pyrimidin-6-one], the melting point was 288 °C (dec.). Besides, the IC50 at PKD1 [2] (setting [3]) was greater than 30 µM. At PKD1 [2], the “inhibitory activity against PKD (in words)” value is reported as “absence of inhibitory activity”. `COc1nc(O)c2sc3c(c2n1)SCCNC3=O` [kmg-NB5-15A, 4-Hydroxy-2-methoxy-7H,8H,9H-1,4-thiazepino[7′,6′-5,4]thiopheno[3,2-d]pyrimidin-6-one]: the melting point is 295 °C (dec.). Further, at PKD1 [2], the “inhibitory activity against PKD (in words)” value is reported as “absence of inhibitory activity”.

For the compound `O=C1NCCSc2c1sc1ccc(N=C=S)cc21` [mcf292-05, 3,4-Dihydro-9-isothiocyanato-[1]benzothieno[2,3-f]-1,4-thiazepin-5(2H)-one], the melting point was in the range of 253 to 253.3 °C. For the same compound, on PKD1 [2] (setting [3]), the IC50 is 2.77 µM. For `O=C(CCl)Nc1ccc2sc3c(c2c1)SCCNC3=O` [mcf292-09, 3,4-Dihydro-9-(2-chloroacetamido)-[1]benzothieno[2,3-f]-1,4-thiazepin-5(2H)-one], the melting point is 229 to 230 °C (dec.). The IC50 on PKD1 [2] (setting [3]) amounted to 1.5 µM.

For orientation: melting point means the temperature of the solid-liquid transition. One may read the IC50 as the concentration at which inhibition is half-maximal.
